The results in this text go back to US8912218B2, “Alkylthiazol carbamate derivatives, preparation thereof and therapeutic use thereof” (Sanofi, priority 2008, dated 2014).

Series [1] deals with T1, FAAH (Fatty Acid Amide Hydrolase) (Mus musculus, UniProt O08914).
T1 construct: Membrane homogenates are prepared at the time of use by homogenizing the tissues; from tissue; host or cells: mouse brain (minus the cerebellum), membrane homogenate
T1 sequence (O08914 1-579): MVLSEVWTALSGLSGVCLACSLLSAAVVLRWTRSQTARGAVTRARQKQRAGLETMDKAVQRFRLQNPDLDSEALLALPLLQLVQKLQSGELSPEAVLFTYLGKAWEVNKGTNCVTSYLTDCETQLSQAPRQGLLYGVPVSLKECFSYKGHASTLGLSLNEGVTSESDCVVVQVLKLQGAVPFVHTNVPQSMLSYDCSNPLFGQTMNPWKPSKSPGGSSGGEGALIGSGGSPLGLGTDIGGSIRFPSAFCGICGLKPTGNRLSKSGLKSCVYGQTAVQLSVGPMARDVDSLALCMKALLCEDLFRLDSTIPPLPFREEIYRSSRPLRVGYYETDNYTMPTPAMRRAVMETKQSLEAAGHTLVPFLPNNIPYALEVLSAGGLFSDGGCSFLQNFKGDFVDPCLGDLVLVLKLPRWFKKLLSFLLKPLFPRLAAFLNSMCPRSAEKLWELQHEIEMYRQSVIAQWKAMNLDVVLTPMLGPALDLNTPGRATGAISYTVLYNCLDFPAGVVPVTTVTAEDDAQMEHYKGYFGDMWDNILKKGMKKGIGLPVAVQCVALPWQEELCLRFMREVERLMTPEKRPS
Briefly: radioenzymatic assay of hydrolysis of anandamide [1-3H ethanolamine] by FAAH. Format: biochemical. The following applies: mouse brain membrane homogenates; pre-incubation 20 minutes at 25° C.; anandamide final concentration 10 μM; read-out: IC50 (concentration inhibiting by 50% the control enzymatic activity of FAAH). On the procedure:
The compounds of the invention were subjected to pharmacological tests allowing determination of their inhibitory effect on the enzyme FAAH (Fatty Acid Amide Hydrolase).
Accordingly, mouse brains (minus the cerebellum) are removed and stored at −80° C. Membrane homogenates are prepared at the time of use by homogenizing the tissues using a Precellys® apparatus in the reaction buffer (10 mM Tris-HCl pH=8, 150 mM NaCl and 1 mM ethylenediaminetetraacetic acid (EDTA)). The enzymatic reaction is conducted in 96-well Multiscreen filter plates, in a final volume of 70 μl. Reaction buffer supplemented with bovine serum albumin without fatty acids (BSA, 1 mg/ml) is used for the enzymatic reaction, the dilution of the compounds and of anandamide [1-^3H ethanolamine]. Added in succession to the wells are the reaction buffer containing the BSA (43 μl/well), the diluted test compounds at different concentrations (7 μl/well containing 1% DMSO) and the membrane preparation (10 μl/well or […] per assay). After the compounds have been pre-incubated with the enzyme at 25° C. for 20 minutes, the reaction is initiated by the addition of anandamide [1-^3H ethanolamine] […] The mixture is stirred for 10 minutes and then the aqueous phase containing the ethanolamine [1-^3H] is recovered by filtration under vacuum and counted by liquid scintillation.

Series [2] deals with male OF 1 mice. Briefly: analgesia test: abdominal stretches induced by PBQ (phenylbenzoquinone). Format: in vivo. The following applies: 30 mg/kg p.o. at 120 minutes, PBQ 2 mg/kg i.p. On the procedure:
The in vivo activity of the compounds of the invention was evaluated in an analgesia test.
Accordingly, intraperitoneal (i.p.) administration of PBQ (phenylbenzoquinone, 2 mg/kg in a 0.9% sodium chloride solution containing 5% of ethanol) to male OF 1 mice weighing 25 to 30 g causes abdominal stretches, on average 30 twists or contractions during the period from 5 to 15 minutes after injection. The test compounds are administered orally (p.o.) or intraperitoneally (i.p.) in suspension in Tween 80 at 0.5%, 60 minutes or 120 minutes before the administration of PBQ.
For example, compounds 28 and 30 of the table reduce by 33% and 80%, respectively, the number of stretches induced by PBQ, at a dose of 30 mg/kg p.o. at 120 minutes.

Molecule `O=C(NCCC1CCN(c2ccc(-c3ccc(F)cc3)cn2)CC1)OCc1cscn1` [Compound 30, Thiazol-4-ylmethyl 2-[5′-(4-fluorophenyl)-3,4,5,6-tetrahydro-2H-[1,2′]bipyridinyl-4-yl]ethylcarbamate] gave a melting point of 130 to 132 °C. Also, in series [1], the IC50 turned out to be 7 nM. The “reduction of the number of stretches induced by PBQ” value in series [2] is 80%.
With `O=C(NCCC1CCN(c2ccc(-c3ccc(F)cc3)cn2)CC1)OCc1nccs1` [Compound 28, Thiazol-2-ylmethyl 2-[5′-(4-fluorophenyl)-3,4,5,6-tetrahydro-2H-[1,2′]bipyridinyl-4-yl]-ethylcarbamate], the melting point is 131 to 133 °C. Besides, the IC50 in series [1] was found to be 3 nM. For the same molecule, in series [2], the “reduction of the number of stretches induced by PBQ” value was 33%.
On to `O=C(NCCC1CCN(c2ccc3cc(Cl)ccc3n2)CC1)OC(c1nccs1)C(F)(F)F` (racemic) [Compound 106, 2,2,2-Trifluoro-1-thiazol-2-ylethyl (+/−)-2-[1-(6-chloroquinolin-2-yl)piperidin-4-yl]ethylcarbamate], for which the melting point lay in the range of 114 to 116 °C.
Molecule `O=C(NCCC1CCN(c2ccc(-c3ccc(F)cc3)cn2)CC1)OCc1cncs1` [Compound 33, Thiazol-5-ylmethyl 2-[5′-(4-fluorophenyl)-3,4,5,6-tetrahydro-2H-[1,2′]bipyridinyl-4-yl]ethylcarbamate] displayed a melting point of 100 to 102 °C.
`O=C(NCCC1CCN(c2ccc3cc(F)ccc3n2)CC1)OCc1cncs1` [Compound 117, Thiazol-5-ylmethyl 2-[1-(6-fluoroquinolin-2-yl)piperidin-4-yl]ethylcarbamate]: the melting point is 100 to 102 °C.
On the same count and under the same terms, the result for `CCOc1ccc(-c2ccc(N3CCC(CCNC(=O)OCc4nccs4)CC3)nc2)cc1` [Compound 38, Thiazol-2-ylmethyl 2-[5′-(4-ethoxyphenyl)-3,4,5,6-tetrahydro-2H-[1,2′]bipyridinyl-4-yl]ethylcarbamate] reads 157 to 159 °C.
`O=C(NCCC1CCN(c2cccc(-c3ccc(F)cc3)n2)CC1)OC(c1nccs1)C(F)(F)F` (racemic) [Compound 50, 2,2,2-Trifluoro-1-thiazol-2-ylethyl (+/−)-2-[6′-(4-fluorophenyl)-3,4,5,6-tetrahydro-2H-[1,2′]bipyridinyl-4-yl]ethylcarbamate] gave a melting point of 121 to 123 °C.

In general, melting point refers to the temperature of the solid-liquid transition.
